From US12195437B2, “Lipophenolic flavonoid derivatives useful to reduce carbonyl and oxidative stresses (COS)” (Centre National de la Recherche Scientifique (CNRS), priority 2018, dated 2025)
Entries after “also recorded” stand apart in the source; their conditions may differ.

Legend:
Format in all cases: cell-based
[1] = system: ARPE-19 cells; experiment: Cytotoxicity of lipophenols on ARPE-19 cells (MTT); details: 24 h
Experimental: (§1) Cell viability was determined by MTT colorimetric assay. Cells were incubated for 2 h with MTT reagent (0.5 mg/mL). During this incubation time, dehydrogenases of living cells reduced MTT to insoluble purple formazan, which was then dissolved in DMSO. The absorbance at 570 nm and 655 nm of individual wells was measured using a microplate reader (BioRad 550). The percentage of viable cells was calculated as [(OD570 sample−OD655 sample)/(OD570 control−OD655 control)]×100%.
(§2) ARPE-19 cells were plated into 96-well plates (4×10^4 cells/well) and cultured for 24 h to reach confluence before lipophenol treatment. […] Control cells were incubated with DMSO (0.2%). The viability of the cells was determined using a MTT colorimetric assay. All samples are expressed as percentage of viability compared to non-treated control cells (normalized at 100% survival).
(§3) Results on the measurement of lipophenol toxicity will be discussed in % cell survival at a given lipophenol concentration compared to untreated cells. […] Any concentration of lipophenol resulting in cell survival of less than 5% (zero survival) will be considered a highly toxic concentration.

[2] = system: ARPE-19 cells; experiment: Protection of lipophenols against all-trans-retinal toxicity (anti-carbonyl stress activity, MTT); details: trans-retinal 15 μM; for anti-carbonyl stress activity (in words): up to 80 μM lipophenol; for cell survival gain (anti-carbonyl stress activity): compared to stressed untreated cells
Experimental: (§4) ARPE-19 cells (cells from the retinal pigment epithelium) were obtained from ATCC, and were grown following the instructions in Dulbecco's Modified Eagle's Medium (DMEM)/Ham F12 (GIBCO) containing 10% v/v fetal bovine serum (FBS) and 1% v/v penicillin/streptomycin under a humidified air (95%)/CO2 (5%) atmosphere at 37° C. For experimental cell seeding and sub-culturing, cells were dissociated with 0.25% trypsin-EDTA, re-suspended in the culture medium and then plated at 1-3×10^5 cells/mL.
as §1
ARPE-19 cells were plated into 96-well plates (4×10^4 cells/well) and cultured for 24 h to reach confluence before lipophenol treatment. The cell cultures were treated with serum free medium containing lipophenols at different concentrations (0-80 μM) for 1 h. Then all-trans-retinal was added to a final concentration of 15 μM for 4 h, before rinsing with medium. Control cells were incubated with DMSO (0.2%)±all-trans-retinal. The cell viability was determined 16-20 h later using a MTT colorimetric assay. All samples are expressed as percentage of viability compared to non-treated and exposed to all-trans-retinal control cells. Non-treated and non-exposed to all-trans-retinal control cells are normalized at 100% survival.
The results on the measurement of anti-carbonyl stress activity will be discussed in % cell survival gain compared to cells stressed by trans-retinal (at 15 μM) and not treated with lipophenols. Any survival gain greater than +5% will be considered as a proven anti-carbonyl stress activity.

[3] = system: ARPE-19 cells; experiment: Protection of lipophenols against ROS production (DCFDA probe, H2O2); details: 80 μM lipophenol, H2O2 600 μM
Experimental: as §4
Reactive oxygen species (ROS) were measured in ARPE-19 cells with the probe DCFDA. The cell permeant reagent DCFDA is deacetylated by cellular esterases to […], which can be oxidized by ROS into the fluorophore 2′,7′-dichlorofluorescein (DCF). ARPE-19 cells were plated into black, opaque bottom 96-well plates (4×10^4 cells/well) and cultured for 24 h to reach confluence before drug treatment. The cell cultures were incubated with 2 μM of DCFDA for 45 min in DMEM/F12 medium without phenol red+1% FBS. The cells were rinsed and incubated with medium containing lipophenols at different concentrations (0-80 μM) for 1 h. Then H2O2 was added to a final concentration of 600 μM for 4 h, followed by the measurement of DCF production by fluorescence spectroscopy with excitation wavelength at 485 nm and emission wavelength at 535 nm. Control cells were incubated with DMSO (0.2%)±DCFDA±H2O2. All samples are expressed as percentage of ROS production compared to non-oxidized control cells (normalized at 100% of ROS production).
The lowest percentages of increase will therefore be representative of the most protective derivatives.

[4] = system: ARPE-19 cells; experiment: Protection of lipophenols against photoactivated A2E toxicity (MTT); details: A2E 20 μM, blue light
Experimental: as §4, §1
ARPE-19 cells were plated into 96-well plates (4×10^4 cells/well) and cultured for 24 h to reach confluence before lipophenol treatment. The cell cultures were treated with serum free DMEM/F12 medium without phenol red containing lipophenols at different concentrations (0-80 μM) for 1 h. Then A2E was added to a final concentration of 20 μM for 6 h, before rinsing with medium. Control cells were incubated with DMSO (0.2%)+A2E. Cells were exposed to intense blue light (4600 LUX) for 30 min to induce phototoxicity of A2E and incubated at 37° C. The cell viability was determined 16-20 h later using a MTT colorimetric assay. All samples are expressed as percentage of viability compared to non-treated and exposed to A2E control cells. Non-treated and non-exposed to A2E control cells are normalized at 100% survival.
Photoactivation of A2E leads to its oxidation and can generate cytotoxic derivatives, in particular carbonyl derivatives responsible for carbonyl stress. Results on lipophenol protection against photoactivated A2E toxicity will be discussed in % cell survival gain compared to cells stressed by A2E and not treated by lipophenols. This additional evaluation was not performed for all synthesized lipophenolic derivatives but only a selection of them to discuss the results obtained.

[5] = Cytotoxicity of lipophenols on ARPE-19 cells (MTT); details: human, ARPE-19 cells (retinal pigment epithelium), tested 0-160 μM, read-out: CC50 (cytotoxic concentration 50)
Experimental: as §1, §2, §3

Structure (SMILES) | gain of % of ROS production compared to non-stressed cells [3] | cell survival gain (anti-carbonyl stress activity) ([2]; 80 μM lipophenol) | CC50 at 24 h [5] | also measured
Oc1cc(O)cc(O)c1 [phloroglucinol, reference compound] | +50% |  |  | cell survival ([1]; 160 μM lipophenol, compared to untreated cells (100%)): 61%; anti-carbonyl stress activity (in words) [2]: no survival gain; protection against photoactivated A2E (in words) ([4]; up to 80 μM lipophenol): no cell protection
CCCCC/C=C\C/C=C\CCCCCCCC(=O)O[C@H]1Cc2c(OC(C)C)cc(O)cc2O[C@@H]1c1ccc(O)c(O)c1 [C-3LA-5OiP, (9Z,12Z)-(2R,3S)-2-(3,4-dihydroxyphenyl)-7-hydroxy-5-isopropoxy-chroman-3-yl octadeca-9,12-dienoate] | +67% | +9% |  | cell survival gain against photoactivated A2E ([4]; concentration not given): +30%
CCCCC/C=C\C/C=C\CCCCCCCC(=O)Oc1c(-c2ccc(O)c(O)c2)oc2cc(O)cc(OC(C)C)c2c1=O [Q-3LA-5OiP, (9Z,12Z)-7-hydroxy-2-(3,4-dihydroxyphenyl)-5-isopropoxy-4-oxo-4H-chromen-3-yl octadeca-9,12-dienoate] |  | +49% | < 80 µM | cell survival gain (anti-carbonyl stress activity) ([2]; 40 μM lipophenol): +34%
O=c1c(O)c(-c2ccc(O)c(O)c2)oc2cc(O)cc(O)c12 [quercetin, reference compound] |  |  | ~120 µM | anti-carbonyl stress activity (in words) [2]: did not show anti-carbonyl stress potency; also recorded: no cellular protection; cell survival gain against photoactivated A2E ([4]; from 40 μM lipophenol (plateau)): +36%
CC/C=C\C/C=C\C/C=C\C/C=C\C/C=C\C/C=C\CCC(=O)Oc1c(-c2ccc(O)c(O)c2)oc2cc(O)cc(O)c2c1=O [Q-3DHA, (4Z,7Z,10Z,13Z,16Z,19Z)-2-(3,4-dihydroxyphenyl)-5,7-dihydroxy-4-oxo-4H-chromen-3-yl docosa-4,7,10,13,16,19-hexaenoate] |  |  | < 160 µM | cell survival gain, maximum protection ([2]; 60 μM lipophenol): +21%
CC/C=C\C/C=C\C/C=C\C/C=C\C/C=C\C/C=C\CCC(=O)Oc1c(-c2ccc(O)c(O)c2)oc2cc(O)cc(OC(C)C)c2c1=O [Q-3DHA-5OiP, (4Z,7Z,10Z,13Z,16Z,19Z)-7-hydroxy-2-(3,4-dihydroxyphenyl)-5-isopropoxy-4-oxo-4H-chromen-3-yl docosa-4,7,10,13,16,19-hexaenoate] |  |  | > 40 µM | concentration from which cytotoxicity is induced [1]: 60 µM; cell survival gain (anti-carbonyl stress activity) ([2]; 40 μM lipophenol): +27%
CCCCC/C=C\C/C=C\CCCCCCCC(=O)O[C@H]1Cc2c(O)cc(O)cc2O[C@@H]1c1ccc(O)c(O)c1 [C-3LA, (9Z,12Z)-(2R,3S)-2-(3,4-dihydroxyphenyl)-5,7-dihydroxy-chroman-3-yl octadeca-9,12-dienoate] | +24% | +11% | < 160 µM | 
